Our source for the IC50 and Ki values is ChEMBL document CHEMBL1909046, “DrugMatrix in vitro pharmacology data”.

Data set [1] has as its target T1, Muscarinic acetylcholine receptor M4 (Homo sapiens, UniProt P08173).
T1 sequence (P08173 whole entry): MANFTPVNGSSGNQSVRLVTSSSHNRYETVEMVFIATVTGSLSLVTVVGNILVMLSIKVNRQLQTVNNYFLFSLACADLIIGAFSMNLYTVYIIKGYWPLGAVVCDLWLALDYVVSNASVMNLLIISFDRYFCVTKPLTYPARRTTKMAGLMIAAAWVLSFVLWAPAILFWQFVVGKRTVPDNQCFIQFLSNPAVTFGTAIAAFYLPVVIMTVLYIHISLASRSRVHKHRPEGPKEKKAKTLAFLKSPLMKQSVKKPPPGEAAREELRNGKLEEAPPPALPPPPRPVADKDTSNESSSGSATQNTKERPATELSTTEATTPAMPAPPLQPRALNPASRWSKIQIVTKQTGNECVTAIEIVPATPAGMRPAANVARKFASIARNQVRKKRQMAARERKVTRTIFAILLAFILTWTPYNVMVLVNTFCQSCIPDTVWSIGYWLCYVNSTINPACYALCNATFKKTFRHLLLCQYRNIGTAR
Format: cell membranes, CHO-K1, Membrane.

The target in data set [2] is T2, Neuropeptide Y receptor type 1 (Homo sapiens, UniProt P25929).
T2 sequence (P25929 whole entry): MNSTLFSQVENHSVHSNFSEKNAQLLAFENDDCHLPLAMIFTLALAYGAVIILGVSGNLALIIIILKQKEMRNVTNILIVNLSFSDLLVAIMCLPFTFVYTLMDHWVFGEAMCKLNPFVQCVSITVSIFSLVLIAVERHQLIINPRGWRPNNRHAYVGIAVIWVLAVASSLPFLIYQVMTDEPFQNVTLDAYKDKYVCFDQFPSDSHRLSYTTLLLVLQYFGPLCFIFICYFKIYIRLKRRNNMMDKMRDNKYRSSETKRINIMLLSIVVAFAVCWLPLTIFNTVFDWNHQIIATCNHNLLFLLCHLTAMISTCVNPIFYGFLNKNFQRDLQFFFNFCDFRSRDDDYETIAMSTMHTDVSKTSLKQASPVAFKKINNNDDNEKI
Format: cell membranes, Membrane. The settings on record: sk-n-mc.

Data set [3] has as its target T3, Nitric oxide synthase, inducible (Mus musculus, UniProt P29477).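 Note: inhibition of iNOS enzyme activity measured with L-arginine as substrate.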
T3 sequence (P29477 whole entry): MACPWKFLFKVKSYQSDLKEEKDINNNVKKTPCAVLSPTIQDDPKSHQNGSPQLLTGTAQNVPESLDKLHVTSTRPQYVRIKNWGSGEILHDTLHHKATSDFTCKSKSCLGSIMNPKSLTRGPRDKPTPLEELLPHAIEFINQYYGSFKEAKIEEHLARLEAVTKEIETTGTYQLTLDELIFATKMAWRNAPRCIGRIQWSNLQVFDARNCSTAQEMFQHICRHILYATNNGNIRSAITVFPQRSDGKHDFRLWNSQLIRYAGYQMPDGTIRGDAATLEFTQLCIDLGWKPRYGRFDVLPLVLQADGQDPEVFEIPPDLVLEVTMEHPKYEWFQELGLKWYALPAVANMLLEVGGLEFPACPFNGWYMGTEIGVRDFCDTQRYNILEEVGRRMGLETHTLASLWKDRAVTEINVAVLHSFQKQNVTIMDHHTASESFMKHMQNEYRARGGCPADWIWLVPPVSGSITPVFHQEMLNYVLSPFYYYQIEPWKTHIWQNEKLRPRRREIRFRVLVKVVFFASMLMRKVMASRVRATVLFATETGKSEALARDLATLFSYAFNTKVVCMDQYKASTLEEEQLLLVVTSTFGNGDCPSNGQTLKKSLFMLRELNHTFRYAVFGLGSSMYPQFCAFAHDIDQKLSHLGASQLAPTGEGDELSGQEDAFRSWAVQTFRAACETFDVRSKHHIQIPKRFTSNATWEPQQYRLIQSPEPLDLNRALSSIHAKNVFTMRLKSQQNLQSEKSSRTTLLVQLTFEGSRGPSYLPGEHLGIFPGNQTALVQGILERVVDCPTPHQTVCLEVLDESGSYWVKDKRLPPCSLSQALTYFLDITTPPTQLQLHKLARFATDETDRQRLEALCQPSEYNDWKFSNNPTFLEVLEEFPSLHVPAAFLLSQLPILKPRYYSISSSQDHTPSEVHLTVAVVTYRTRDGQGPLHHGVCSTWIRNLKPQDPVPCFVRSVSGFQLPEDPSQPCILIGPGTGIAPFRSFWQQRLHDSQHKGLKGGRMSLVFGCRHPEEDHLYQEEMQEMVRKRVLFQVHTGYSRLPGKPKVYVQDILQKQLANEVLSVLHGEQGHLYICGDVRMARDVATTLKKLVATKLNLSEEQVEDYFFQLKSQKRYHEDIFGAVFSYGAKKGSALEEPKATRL
On the set-up: species or system Escherichia coli.

The target of the next data set is T4, Cytochrome P450 1A2 (Homo sapiens, UniProt P05177).
T4 sequence (P05177 whole entry): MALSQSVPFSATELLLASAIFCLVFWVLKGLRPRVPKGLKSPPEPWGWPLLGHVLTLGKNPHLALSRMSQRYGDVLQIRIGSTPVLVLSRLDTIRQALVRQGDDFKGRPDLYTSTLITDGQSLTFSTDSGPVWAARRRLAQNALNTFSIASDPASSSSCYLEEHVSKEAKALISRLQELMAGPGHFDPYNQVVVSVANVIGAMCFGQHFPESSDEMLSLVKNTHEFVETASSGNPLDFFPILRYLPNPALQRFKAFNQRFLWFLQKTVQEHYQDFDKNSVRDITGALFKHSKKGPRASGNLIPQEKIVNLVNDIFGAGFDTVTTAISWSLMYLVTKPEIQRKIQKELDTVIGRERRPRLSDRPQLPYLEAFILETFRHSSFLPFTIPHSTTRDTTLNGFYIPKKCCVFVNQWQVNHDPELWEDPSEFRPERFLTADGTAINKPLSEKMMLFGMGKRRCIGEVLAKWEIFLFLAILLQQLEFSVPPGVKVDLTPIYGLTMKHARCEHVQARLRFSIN
The settings on record: bti-tn-5b1-4.

The target of another data set is Cytochrome P450 3A4 (Homo sapiens, UniProt P08684). The following applies: bti-tn-5b1-4.
Chain of Cytochrome P450 3A4 (P08684 whole entry): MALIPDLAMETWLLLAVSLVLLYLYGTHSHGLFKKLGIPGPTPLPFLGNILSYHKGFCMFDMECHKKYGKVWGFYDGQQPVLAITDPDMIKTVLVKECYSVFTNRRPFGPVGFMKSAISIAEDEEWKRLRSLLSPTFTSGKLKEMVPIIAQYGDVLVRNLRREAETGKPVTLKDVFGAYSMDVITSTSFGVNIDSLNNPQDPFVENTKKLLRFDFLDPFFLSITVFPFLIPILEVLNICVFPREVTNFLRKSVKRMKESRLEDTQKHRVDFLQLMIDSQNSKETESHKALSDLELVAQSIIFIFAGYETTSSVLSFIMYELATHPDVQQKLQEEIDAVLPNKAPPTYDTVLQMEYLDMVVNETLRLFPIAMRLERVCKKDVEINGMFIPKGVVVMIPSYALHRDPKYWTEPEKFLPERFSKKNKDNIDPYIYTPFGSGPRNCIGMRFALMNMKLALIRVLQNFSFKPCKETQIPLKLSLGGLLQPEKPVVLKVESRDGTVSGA
Note: in other assays of this panel Not Active means under 50% inhibition at 10 µM.

Turning to `COc1ccccc1N`, the 50% inhibitory concentration (IC50) entry (in data set [1] (cho-k1); in data set [2]; in data set [3]; against Cytochrome P450 1A2; against Cytochrome P450 3A4) was “Not Active” in each case. Moreover, the inhibition constant Ki result at Cytochrome P450 1A2 and on Cytochrome P450 3A4 was “Not Active” throughout.

In the case of `Cc1c(O)cccc1C(=O)N[C@@H](CSc1ccccc1)[C@H](O)CN1C[C@H]2CCCC[C@H]2C[C@H]1C(=O)NC(C)(C)C`, the IC50 entry (in data set [1] (cho-k1); in data set [2]; in data set [3]; on Cytochrome P450 1A2) was “Not Active” each time. Further, the inhibition constant (Ki) entry at Cytochrome P450 1A2 is given as “Not Active”.

Consider `NC12CC3CC(CC(C3)C1)C2` [AMANTADINE], for which the IC50 result in data set [1] (cho-k1), in data set [2] and in data set [3] was “Not Active” in each case.

Regarding `CC(C)c1c(C(=O)Nc2ccccc2)c(-c2ccccc2)c(-c2ccc(F)cc2)n1CC[C@@H](O)C[C@@H](O)CC(=O)O` [ATORVASTATIN], the IC50 entry in data set [1] (cho-k1), in data set [2] and in data set [3] was “Not Active” in each case.

Take `COc1cc(OC)c(C(=O)CCCN2CCCC2)c(OC)c1` [BUFLOMEDIL]: the IC50 entry (in data set [1] (cho-k1); in data set [2]; in data set [3]; against Cytochrome P450 1A2) was “Not Active” in each case. Further, on Cytochrome P450 1A2, the inhibition constant Ki entry was “Not Active”.

Consider `Cn1c(=O)c2c(ncn2C)n(C)c1=O` [CAFFEINE], for which the IC50 result (in data set [1] (cho-k1); in data set [2]; in data set [3]; at Cytochrome P450 1A2; against Cytochrome P450 3A4) was “Not Active” throughout. The Ki entry at Cytochrome P450 1A2 and on Cytochrome P450 3A4 was “Not Active” throughout.

In the case of `CC(C)NCC(O)c1ccccc1Cl` (centres undefined) [CLORPRENALINE], the half-inhibitory concentration (IC50) result (in data set [1] (cho-k1); in data set [2]; in data set [3]; against Cytochrome P450 1A2; at Cytochrome P450 3A4) was “Not Active” in each case. The Ki entry at Cytochrome P450 1A2 and at Cytochrome P450 3A4 was “Not Active” throughout.

Consider `C[S+](C)[O-]` [DIMETHYL SULFOXIDE], for which the IC50 result (in data set [1] (cho-k1); in data set [2]; in data set [3]; at Cytochrome P450 1A2; against Cytochrome P450 3A4) was “Not Active” in each case. Further, the Ki entry at Cytochrome P450 1A2 and at Cytochrome P450 3A4 was “Not Active” in each case.

As to `CC(O)(P(=O)(O)O)P(=O)(O)O` [ETIDRONIC ACID], the IC50 entry (in data set [1] (cho-k1); in data set [2]; in data set [3]; on Cytochrome P450 1A2; against Cytochrome P450 3A4) was “Not Active” throughout. The Ki entry on Cytochrome P450 1A2 and on Cytochrome P450 3A4 was “Not Active” in each case.

Consider `CCOC(=O)c1ncn2c1CN(C)C(=O)c1cc(F)ccc1-2` [FLUMAZENIL], for which the IC50 result (in data set [1] (cho-k1); in data set [2]; in data set [3]; against Cytochrome P450 1A2; against Cytochrome P450 3A4) was “Not Active” in each case. Further, the inhibition constant Ki entry on Cytochrome P450 1A2 and at Cytochrome P450 3A4 was “Not Active” throughout.

With `C[C@H]1COc2c(N3CCN(C)CC3)c(F)cc3c(=O)c(C(=O)O)cn1c23.C[C@H]1COc2c(N3CCN(C)CC3)c(F)cc3c(=O)c(C(=O)O)cn1c23.O` [LEVOFLOXACIN], the half-maximal inhibitory concentration (IC50) result (in data set [1] (cho-k1); in data set [2]; in data set [3]; at Cytochrome P450 1A2) was “Not Active” in each case. Besides, at Cytochrome P450 1A2, the inhibitory constant (Ki) entry is “Not Active”.

For `CN(C)C(=N)NC(=N)N` [METFORMIN], the 50% inhibitory concentration (IC50) result (in data set [1] (cho-k1); in data set [2]; in data set [3]; against Cytochrome P450 3A4) was “Not Active” throughout. Also, at Cytochrome P450 3A4, the Ki result is “Not Active”.

Take `N=C(N)c1ccc(OCCCCCOc2ccc(C(=N)N)cc2)cc1` [PENTAMIDINE]: the IC50 in data set [1] (read-out: IC50) is 1580 nM; in data set [2], “Not Active”; in data set [3], “Not Active”; on Cytochrome P450 1A2, “Not Active”. Also, the inhibition constant Ki is 220 nM in data set [1] (read-out: Ki) and “Not Active” on Cytochrome P450 1A2.

Take `NNCCc1ccccc1` [PHENELZINE]: the IC50 entry (in data set [1] (cho-k1); in data set [2]; in data set [3]; at Cytochrome P450 1A2) was “Not Active” each time. On Cytochrome P450 1A2, the Ki entry is “Not Active”.
